From PubChem BioAssay (NCI)
Several values for one entry are separate records, joined by “and”; a condition that tells them apart may be missing. Equal values may be shown once.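 Compound exposure: 48 hours, 5 concentrations, 96-well plates. GI50 is the concentration that inhibits growth by half. TGI is the concentration that stops growth completely.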 Where a SMILES comes first, the peptide text is derived from it. [ ]: non-standard residue; d: D form. The star is where a group is joined. ξ: configuration not given here. ξPhe(4-NO2) = NC(Cc1ccc([N+](=O)[O-])cc1)C(=O)O; Boc = CC(C)(C)OC(=O)*; OBn = c1ccc(CO*)cc1

Key:
Assay in all cases: inhibition of tumour cell growth, NCI panel, 48 h
KM12 colon = test system: KM12 colon
SK-MEL-2 melanoma = test system: SK-MEL-2 melanoma
NCI-H226 lung = test system: NCI-H226 lung
A498 renal = test system: A498 renal
DLD-1 colon = test system: DLD-1 colon
XF 498 CNS = test system: XF 498 CNS
M19-MEL melanoma = test system: M19-MEL melanoma
KM20L2 colon = test system: KM20L2 colon
LXFL 529 NSCLC = test system: LXFL 529 NSCLC
DMS 114 small cell lung = test system: DMS 114 small cell lung
SNB-78 CNS = test system: SNB-78 CNS
DMS 273 small cell lung = test system: DMS 273 small cell lung
HOP-18 NSCLC = test system: HOP-18 NSCLC

Compound	TGI (KM12 colon)	TGI (SK-MEL-2 melanoma)	TGI (NCI-H226 lung)	TGI (A498 renal)	other results
CC(=N/NC(=S)Nc1c(C)n(C)n(-c2ccccc2)c1=O)/C(C)=N\NC(=S)Nc1c(C)n(C)n(-c2ccccc2)c1=O	> 100 µM	> 100 µM	> 100 µM	> 100 µM	
CC1=CCC[C@@](C)(O)[C@@H]2C[C@H]3C(CSc4ccccc4)C(=O)O[C@H]3[C@@H](O2)[C@H](C)CCC1 (some centres undefined)	22.6 µM	32.3 µM		45 µM	
Cc1ccc(S(=O)(=O)NC(=O)NCC(=O)NCC(=O)O)cc1	> 100 µM	> 100 µM	> 100 µM	> 100 µM	
CC(C)(C)OC(=O)NC(Cc1ccc([N+](=O)[O-])cc1)C(=O)NCC(=O)OCc1ccccc1 (centres undefined) (Boc-[ξPhe(4-NO2)]-Gly-OBn)	59 µM		67.8 µM	> 100 µM	
COc1ccc(C2SC(N)=Nc3c2c(C)nn3C(=O)c2ccc(Cl)cc2)cc1 (centres undefined)	> 10 µM	> 10 µM	> 10 µM		
COc1ccc(OC)c(NC(=O)C(=O)Nn2c(=S)[nH]c3ccccc3c2=O)c1	> 100 µM	> 100 µM	> 100 µM	> 100 µM	
COc1cc(C)cc2c1C(=O)C(Br)=CC2=O	28.8 µM	29.4 µM	32.3 µM	34.5 µM	
CC(=O)OCC1OC(n2c3c(c(-c4ccc(Cl)cc4)c(C#N)c2=S)C(=O)CC(C)(C)C3)C(OC(C)=O)C(OC(C)=O)C1OC(C)=O (centres undefined)	> 77.4 µM	46.4 µM	> 81 µM	87.9 µM	
Cc1cnc2[nH]c(-c3ccc(F)cc3)cc(=O)c2c1	> 100 µM	> 82.1 µM	> 84.5 µM	81.3 µM	
Cc1ccc(S(=O)(=O)[N-]C2C(=O)c3ccccc3C(=O)C2[n+]2cccc(C(N)=O)c2)cc1 (centres undefined)	> 100 µM	> 100 µM	> 100 µM		
CN(C)CCOC1(Cc2ccc(Cl)cc2Cl)CCC(C(C)(C)C)CC1 (centres undefined)	3.27 µM and 3.36 µM	3.89 µM and 3.33 µM	5.13 µM and 10.7 µM	5.18 µM and 3.95 µM	GI50 (NCI-H226 lung): 2.19 µM and 4.67 µM; GI50 (A498 renal): 2.07 µM
NC(C(F)(F)F)(C(F)(F)F)P(=O)(c1ccccc1)c1ccccc1	> 100 µM	> 100 µM	> 100 µM		
O=[N+]([O-])/C(Cl)=C(\Nc1ccccc1)C(Cl)=C(Cl)Cl	32 µM	91.6 µM	78 µM	65.4 µM	
Cc1cc(S(=O)(=O)Nc2nc(N)nc(N3CCOCC3)n2)c(SCC(=O)O)cc1Cl	> 10 µM	> 10 µM	> 10 µM	> 10 µM	
Cc1cn(CC2=NCC(C)(C)CN2)c(=O)[nH]c1=O		> 100 µM	> 100 µM	> 100 µM	
C=C(C)[C@@H]1CC[C@@H](C)[C@](O)([C@@H]2C[C@@H]([C@H](COC(=O)c3ccccc3)OC(=O)c3ccccc3)OC2=O)C1	> 100 µM	> 100 µM	> 100 µM	> 100 µM	
COC(=O)[C@H]1C=C[C@@H](C)n2c(=O)c3ccccc3c(=O)n21	> 100 µM	> 100 µM	> 100 µM	> 100 µM	TGI (DLD-1 colon): > 100 µM; TGI (XF 498 CNS): > 100 µM; TGI (M19-MEL melanoma): > 100 µM; TGI (KM20L2 colon): > 100 µM; TGI (LXFL 529 NSCLC): > 100 µM; TGI (DMS 114 small cell lung): > 100 µM; TGI (SNB-78 CNS): > 100 µM; TGI (DMS 273 small cell lung): > 100 µM
CC(C)C[C@H](NC(=O)CCc1ccccc1)B(O)O	32.8 µM	39.4 µM	4.8 µM	14 µM	
COc1cc2c(cc1OC)C1C(O)C(OC)C=C3CC[N+](C)(C2)C31 (centres undefined)	> 100 µM	> 100 µM	> 100 µM	> 100 µM	
COc1ccc(-n2c3c(c4cc(O)ccc42)C(=O)c2ccccc2C3=O)cc1	> 100 µM	> 100 µM		22.5 µM	
CC(NC(=O)/C(C#N)=C/c1ccc2[nH]ccc2c1)c1ccccc1 (centres undefined)	32.2 µM	39.9 µM	53.8 µM	32.1 µM	TGI (DLD-1 colon): 34.5 µM; TGI (HOP-18 NSCLC): 53.3 µM; TGI (KM20L2 colon): 33.2 µM; TGI (LXFL 529 NSCLC): 41.4 µM; TGI (DMS 114 small cell lung): 37.6 µM; TGI (SNB-78 CNS): 90.4 µM; TGI (DMS 273 small cell lung): 40.7 µM
c1ccc2[nH]c3[nH]c4[nH]c5ccccc5[nH]c4[nH]c3[nH]c2c1	> 100 µM	> 100 µM	> 100 µM	> 100 µM	
CN(C)c1ccc(/C=C2\N=C(N/N=C/c3ccccc3)NC2=O)cc1	> 100 µM	> 100 µM	> 100 µM	> 100 µM	
C[C@@H]1C[C@@H](O)[C@@]2(O)C13CC(=O)OC(C3)[C@@H](C)[C@@]2(C)CO (some centres undefined)	> 100 µM	> 100 µM	> 100 µM	> 100 µM	
NC(=O)C12C3C4C1C1C2C3C41C(N)=O (centres undefined)	> 100 µM	> 100 µM	> 100 µM	> 100 µM	TGI (DLD-1 colon): > 100 µM; TGI (HOP-18 NSCLC): > 100 µM; TGI (M19-MEL melanoma): > 100 µM; TGI (KM20L2 colon): > 100 µM; TGI (LXFL 529 NSCLC): > 100 µM; TGI (DMS 114 small cell lung): > 100 µM; TGI (DMS 273 small cell lung): > 100 µM
CCOc1ccc(N/C(=C(/C(Cl)=C(/Cl)NCCO)[N+](=O)[O-])n2nnc3ccccc32)cc1	> 100 µM	> 100 µM	> 100 µM	> 100 µM	
NC(=O)C(=CN1C(=O)CC(=O)NC1=S)C(N)=O	> 100 µM	> 100 µM	> 100 µM	> 100 µM	
COc1ccc(/C=C2\N=C(c3ccccc3)N(Nc3nnc(NN4C(=O)/C(=C/c5ccc(OC)cc5)N=C4c4ccccc4)c4ccccc34)C2=O)cc1	54.3 µM		> 100 µM	> 100 µM	TGI (DLD-1 colon): > 100 µM; TGI (HOP-18 NSCLC): > 100 µM; TGI (M19-MEL melanoma): > 100 µM; TGI (KM20L2 colon): > 100 µM; TGI (LXFL 529 NSCLC): > 100 µM; TGI (DMS 114 small cell lung): > 100 µM; TGI (SNB-78 CNS): > 100 µM; TGI (DMS 273 small cell lung): > 100 µM
Cc1[nH]n(-c2nc3c(c(=O)[nH]2)CCC3)c(=O)c1CCO	> 100 µM	> 100 µM	> 100 µM	> 100 µM	
Nc1nc(N)nc(-c2cnccn2)n1	> 100 µM	> 100 µM	> 100 µM	> 100 µM	
